Test results reported in ChEMBL document CHEMBL1201862, “PubChem BioAssay data set” (2004).
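A five-concentration, 48-hour dose response in 96-well plates underlies each endpoint, interpolated linearly between surrounding concentrations. The concentration for 50% growth inhibition is given as GI50.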 Active and inactive are the calls of the source. No stated cut-off is given here; in the data, active = GI50 up to about 1.1 µM and inactive = higher.

Columns and labels:
Assay in all cases: inhibition of tumour cell growth, NCI panel, 48 h
[1] = test system: U-251
[2] = test system: Hs-578T
[3] = test system: PC-3
[4] = test system: SK-OV-3
[5] = test system: SF-268
[6] = test system: OVCAR-5
[7] = test system: HOP-92
[8] = test system: HCT-15
[9] = test system: SK-MEL-28
[10] = test system: LOX IMVI
[11] = test system: A498
[12] = test system: CAKI-1
[13] = test system: HL-60
[14] = test system: SR
[15] = test system: UACC-62
[16] = test system: HCT-116
[17] = test system: MDA-MB-435
[18] = test system: NCI-H522
[19] = test system: RXF 393
[20] = test system: UACC-257

Row | SMILES | GI50 [1] | GI50 [2] | GI50 [3] | GI50 [4] | GI50 [5] | GI50 [6] | GI50 [7] | GI50 [8] | GI50 [9] | GI50 [10] | GI50 [11] | GI50 [12] | GI50 [13] | GI50 [14] | GI50 [15] | GI50 [16] | GI50 [17] | GI50 [18] | GI50 [19] | GI50 [20]
1 | CC1C2=C(O)CC(C)(C)CC2=NC2=C1C(=O)CC(C)(C)C2 (stereo unspecified) | > 100 µM (inactive) | > 100 µM (inactive) | > 100 µM (inactive) | > 100 µM (inactive) | > 100 µM (inactive) | > 100 µM (inactive) | > 100 µM (inactive) | > 100 µM | > 100 µM (inactive) | > 100 µM (inactive) | > 100 µM (inactive) | > 100 µM (inactive) | > 100 µM (inactive) | > 100 µM (inactive) | > 100 µM (inactive) |  |  |  |  | 
2 | CC[N+]1(C)CCC(O)(/C=C/c2ccc(Cl)cc2)C(C(=O)/C=C/c2ccc(Cl)cc2)C1 (stereo unspecified) | 3.81 µM (inactive) | 3.08 µM (inactive) | 10.7 µM (inactive) | 18 µM (inactive) | 4.55 µM (inactive) | 17.3 µM (inactive) | 3.23 µM (inactive) | 4.56 µM | 6.17 µM (inactive) | 2.71 µM (inactive) | 16.4 µM (inactive) | 1.9 µM (inactive) | 1.6 µM (inactive) |  | 13.8 µM (inactive) | 3.48 µM (inactive) | 3.85 µM (inactive) | 2.88 µM (inactive) | 7.66 µM (inactive) | 14.5 µM (inactive)
3 | CC1CC[C@@]2(OC1)O[C@H]1[C@H](O)[C@H]3[C@@H]4CC[C@H]5C[C@@H](OC6OC(CO)C(OC7OC(CO)C(O)C(OC8OCC(O)C(O)C8O)C7OC7OC(CO)C(O)C(O)C7OC7OC(CO)C(O)C(O)C7O)C(O)C6O)[C@H](O)C[C@]5(C)[C@H]4CC[C@]3(C)[C@H]1[C@@H]2C (stereo partly specified) | 5.01 µM (inactive) | 3.67 µM (inactive) | 2.7 µM (inactive) |  | > 10 µM (inactive) | > 10 µM (inactive) | > 10 µM (inactive) | > 10 µM | > 10 µM (inactive) | > 10 µM (inactive) | > 10 µM (inactive) | > 10 µM (inactive) | 1.54 µM (inactive) |  | > 10 µM (inactive) | 4.59 µM (inactive) | > 10 µM (inactive) | 2.78 µM (inactive) | > 10 µM (inactive) | > 10 µM (inactive)
4 | CC1(C)S[C@@H]2[C@H](N3C(=O)c4ccccc4C3=O)CN2[C@H]1NC(=O)N[C@@H]1N2C[C@@H](N3C(=O)c4ccccc4C3=O)[C@H]2SC1(C)C | 27 µM (inactive) | > 100 µM (inactive) | > 100 µM (inactive) | 80.9 µM (inactive) | 28.9 µM (inactive) | > 100 µM (inactive) | 42.2 µM (inactive) | > 100 µM | > 100 µM (inactive) | > 100 µM (inactive) | > 100 µM (inactive) | > 100 µM (inactive) | > 100 µM (inactive) |  | > 100 µM (inactive) | > 100 µM (inactive) | > 100 µM (inactive) | > 100 µM (inactive) | 45.3 µM (inactive) | 
5 | CC1=C(C)SC(=C2Sc3c(n(C)c(=O)n(C)c3=O)S2)S1 | 4.14 µM (inactive) | 61.4 µM (inactive) | > 100 µM (inactive) | 15.5 µM (inactive) | 43.8 µM (inactive) | > 100 µM (inactive) | 53.7 µM (inactive) | > 100 µM | > 100 µM (inactive) | 48.5 µM (inactive) | 27.4 µM (inactive) | 64.3 µM (inactive) | > 100 µM (inactive) |  | 44.7 µM (inactive) | 10.7 µM (inactive) | 98.6 µM (inactive) | 57.3 µM (inactive) | 48.4 µM (inactive) | > 100 µM (inactive)
6 | CC(C)C1OC(N)=C(C#N)C1(C#N)C#N (stereo unspecified) | 54.1 µM (inactive) | 53.7 µM (inactive) | > 100 µM (inactive) | > 100 µM (inactive) | 44.2 µM (inactive) | > 100 µM (inactive) | 31.3 µM (inactive) | > 10 µM |  | 28.1 µM (inactive) | > 100 µM (inactive) | 3.79 µM (inactive) | 5.58 µM (inactive) |  | 32.5 µM (inactive) | 26.3 µM (inactive) | 29.6 µM (inactive) | 34.6 µM (inactive) | 44.7 µM (inactive) | 17.1 µM (inactive)
7 | O=C1/C(=C/c2ccccc2S)N=C(c2ccccc2)N1c1nc2ccc(Sc3ccccc3)cc2[nH]1 | 21.3 µM (inactive) | 28.2 µM (inactive) | 32.2 µM (inactive) | 43.1 µM (inactive) | 38.3 µM (inactive) | 32.4 µM (inactive) | 81.3 µM (inactive) | 31.9 µM | 36.5 µM (inactive) | 34 µM (inactive) | 26.2 µM (inactive) | 34.1 µM (inactive) | 19.8 µM (inactive) |  | 21.9 µM (inactive) | 33.4 µM (inactive) | 12.4 µM (inactive) | 22.8 µM (inactive) | 28.2 µM (inactive) | 23.6 µM (inactive)
8 | CN1N=C(c2ccncc2)OC1c1ccccc1F (stereo unspecified) | > 100 µM (inactive) | > 100 µM (inactive) | > 100 µM (inactive) | > 100 µM (inactive) | > 100 µM (inactive) | > 100 µM (inactive) | > 100 µM (inactive) | > 100 µM | > 100 µM (inactive) | > 100 µM (inactive) | > 100 µM (inactive) |  | > 100 µM (inactive) |  | > 100 µM (inactive) | > 100 µM (inactive) | > 100 µM (inactive) | > 100 µM (inactive) | > 100 µM (inactive) | 
9 | CSc1nc(-c2ccccc2)[nH]c(=O)n1 | > 100 µM (inactive) | > 100 µM (inactive) | > 100 µM (inactive) | > 100 µM (inactive) | > 100 µM (inactive) | > 100 µM (inactive) | > 100 µM (inactive) | > 100 µM | > 100 µM (inactive) |  | > 100 µM (inactive) | > 100 µM (inactive) | 54.5 µM (inactive) |  | > 100 µM (inactive) | > 100 µM (inactive) | > 100 µM (inactive) | > 100 µM (inactive) | > 100 µM (inactive) | > 100 µM (inactive)
10 | COc1ccc(N(CN2C(=O)CCC2C(=O)O)C(C)=O)cc1 (stereo unspecified) | > 100 µM (inactive) | > 100 µM (inactive) | > 100 µM (inactive) | > 100 µM (inactive) | > 100 µM (inactive) | > 100 µM (inactive) | > 100 µM (inactive) | > 100 µM | > 100 µM (inactive) | > 100 µM (inactive) | > 100 µM (inactive) | > 100 µM (inactive) | > 100 µM (inactive) |  | > 100 µM (inactive) | > 100 µM (inactive) | > 100 µM (inactive) | > 100 µM (inactive) |  | > 100 µM (inactive)
11 | CC1(C)CC(=O)C(CC(C(=O)C(=O)Nc2cc(C(F)(F)F)ccc2Cl)C(=O)c2ccco2)C(=O)C1 (stereo unspecified) | > 100 µM (inactive) | > 100 µM (inactive) | > 100 µM (inactive) | > 100 µM (inactive) | > 100 µM (inactive) | > 100 µM (inactive) | > 100 µM (inactive) | > 100 µM | > 100 µM (inactive) | > 100 µM (inactive) | 46.9 µM (inactive) | > 100 µM (inactive) | > 100 µM (inactive) |  | > 100 µM (inactive) | > 100 µM (inactive) | > 100 µM (inactive) | > 100 µM (inactive) |  | > 100 µM (inactive)
12 | COC1=N[C@H](C(C)C)C(OC)=N[C@H]1Cc1ccc(C[C@@H]2N=C(OC)[C@@H](C(C)C)N=C2OC)s1 | 24 µM (inactive) | 88.3 µM (inactive) | 21.3 µM (inactive) | > 100 µM (inactive) | 67.8 µM (inactive) | 17.5 µM (inactive) | > 100 µM (inactive) | 46.1 µM | 34.7 µM (inactive) | 48.6 µM (inactive) |  | 50.2 µM (inactive) |  | 19.5 µM (inactive) | 45.1 µM (inactive) | 31 µM (inactive) | 33.1 µM (inactive) | 23.7 µM (inactive) |  | 26.3 µM (inactive)
13 | COc1cccc([C@@H]2C/C(=N\NC(=O)C(=O)N[C@@H](C)c3ccccc3)c3cc4c(cc3N2)OCO4)c1 | > 100 µM (inactive) | 19.7 µM (inactive) | 98.6 µM (inactive) | > 100 µM (inactive) | 29.9 µM (inactive) | > 100 µM (inactive) | > 100 µM (inactive) | 27.4 µM | > 100 µM (inactive) | 80 µM (inactive) | 47.4 µM (inactive) | 48.1 µM (inactive) |  |  | 17.1 µM (inactive) | 22.4 µM (inactive) | 2.28 µM (inactive) |  | > 100 µM (inactive) | 15.8 µM (inactive)
14 | O=C(Nc1ccc(N2C(=O)CSC2c2ccccc2O)cc1)c1ccc(N2C(=O)CSC2c2ccccc2O)cc1 (stereo unspecified) | 34 µM (inactive) | 71.9 µM (inactive) | 43.3 µM (inactive) | 23 µM (inactive) | 95.1 µM (inactive) | 83.6 µM (inactive) | 26.7 µM (inactive) | > 100 µM | 39.1 µM (inactive) | 75.3 µM (inactive) |  | > 100 µM (inactive) |  |  | 29.1 µM (inactive) | 88.3 µM (inactive) | 61 µM (inactive) | 55.7 µM (inactive) | 55.6 µM (inactive) | > 100 µM (inactive)
15 | COc1cc(/C=C2/C(=O)N(C(=O)c3ccccc3O)N=C2C)cc(OC)c1OC | 1.2 µM (inactive) | 0.822 µM (active) | 6.93 µM (inactive) | 2.47 µM (inactive) | 8.59 µM (inactive) | 11.7 µM (inactive) | 1.07 µM (active) | 3.17 µM | 53.7 µM (inactive) | 2.09 µM (inactive) | 0.473 µM (active) |  | 2.9 µM (inactive) |  | 0.405 µM (active) | 0.358 µM (active) | 0.863 µM (active) | 3.83 µM (inactive) | 0.192 µM (active) | 4.9 µM (inactive)
